Measurements from patent US20030191188A1, “Method for treating migraine symptoms with ibuprofen and salts thereof” (priority 1999, published 2003).

Key:
[1] = test system: Subjects suffering from photophobia due to a migraine; test: Treatment of photophobia due to a migraine, placebo-controlled subject study; assay type: in vivo; settings: 200 or 400 milligrams of ibuprofen vs placebo; approximately 650 subjects; at time of two hours or longer
Text: FIG. 1 depicts the percentage of subjects with reduced photophobia over time after treatment with ibuprofen. Subjects suffering from photophobia due to a migraine were either given a placebo or treated with 200 or 400 milligrams of ibuprofen. Approximately 650 subjects were in the study. Some subjects were given placebos, while others were given either 200 or 400 milligrams of ibuprofen.

[2] = test system: Subjects suffering from phonophobia due to a migraine; test: Treatment of phonophobia due to a migraine, placebo-controlled subject study; assay type: in vivo; settings: 200 or 400 milligrams of ibuprofen in tablet form vs placebo; at time of two hours or longer
Text: FIG. 2 depicts the percentage of subjects with reduced phonophobia over time over time after treatment with ibuprofen. Subjects suffering from phonophobia due to a migraine were either given a placebo or treated with 200 or 400 milligrams of ibuprofen in tablet form.

Compound: CC(C)Cc1ccc(C(C)C(=O)O)cc1 (centres unmarked) [ibuprofen]
- relief of photophobia (percentage of subjects with reduced photophobia over time, FIG. 1) [1]: effective in relieving photophobia
- relief of phonophobia (percentage of subjects with reduced phonophobia over time, FIG. 2); text prints photophobia [2]: effective in relieving photophobia
